According to patent US20230265151A1, “GIP/GLP1 CO-AGONIST COMPOUNDS” (priority 2020, published 2023):
Where two headings read alike, the source gives them in different places.

Assays:
hGLP-1R = hGLP-1R (Homo sapiens, UniProt P43220); assay: Functional cAMP formation (HTRF) in HEK-293 clonal cells expressing hGLP-1R, 0.1% bovine casein, without or with 1.0% human serum albumin; format: cell-based; set-up: expressed in transfected cells; settings: geometric mean, read-out: hGLP-1R EC50, nM (SEM, n)
hGLP-1R, sequence (P43220 24-463): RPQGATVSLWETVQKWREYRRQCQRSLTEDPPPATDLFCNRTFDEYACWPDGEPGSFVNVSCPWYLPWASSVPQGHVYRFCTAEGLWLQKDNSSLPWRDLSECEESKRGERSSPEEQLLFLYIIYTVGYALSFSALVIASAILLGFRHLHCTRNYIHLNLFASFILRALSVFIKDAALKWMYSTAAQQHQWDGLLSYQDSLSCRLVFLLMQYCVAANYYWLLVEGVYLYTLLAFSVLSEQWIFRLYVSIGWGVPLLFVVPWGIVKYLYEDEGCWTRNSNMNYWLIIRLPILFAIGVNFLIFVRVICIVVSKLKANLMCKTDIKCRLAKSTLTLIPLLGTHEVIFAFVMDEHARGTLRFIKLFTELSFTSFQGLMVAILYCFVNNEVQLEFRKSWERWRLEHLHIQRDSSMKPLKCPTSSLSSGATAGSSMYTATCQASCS
Summary of the method: (§1)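 Cells were stimulated with peptide for 30 min at 37° C, then intracellular cAMP was measured by competitive HTRF (665/620 nm ratio) and converted to nM using a cAMP standard curve. Relative EC50 and Emax came from four-parameter logistic fits of percent maximal response against peptide concentration.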

hGIPR = biological target: T1, hGIPR (Homo sapiens, UniProt P48546); assay: Functional cAMP formation (HTRF) in HEK-293 clonal cells expressing hGIPR, 0.1% bovine casein, without or with 1.0% human serum albumin; format: cell-based; settings: 37° C.; for Emax: HEK293, 0.1% bovine casein and 1.0% human serum albumin, percent of maximal response to GIP(1-42)NH2, read-out: hGIPR Emax, % ± SEM
T1 construct: expressed in transfected cells
T1 sequence (P48546 22-466): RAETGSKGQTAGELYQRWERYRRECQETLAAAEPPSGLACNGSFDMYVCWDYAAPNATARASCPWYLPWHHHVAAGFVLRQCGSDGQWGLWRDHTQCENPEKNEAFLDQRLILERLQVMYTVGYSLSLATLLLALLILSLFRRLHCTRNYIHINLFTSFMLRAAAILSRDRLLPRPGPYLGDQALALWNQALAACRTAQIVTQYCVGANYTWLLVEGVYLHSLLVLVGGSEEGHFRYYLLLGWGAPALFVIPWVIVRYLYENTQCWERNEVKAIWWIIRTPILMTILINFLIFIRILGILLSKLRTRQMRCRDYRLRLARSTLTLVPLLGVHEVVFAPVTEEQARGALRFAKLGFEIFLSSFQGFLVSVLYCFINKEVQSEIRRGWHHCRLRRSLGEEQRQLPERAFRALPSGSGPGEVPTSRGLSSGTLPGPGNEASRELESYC
Summary of the method: as §1

[1] = biological target: T2, human GLP-1 receptor (hGLP-1R) (Homo sapiens, UniProt P43220); assay: [125I]-GLP-1 binding, SPA with membranes of HEK293 cells expressing hGLP-1R; settings: human GLP-1R; geometric mean (SEM, n); read-out: Binding Affinity Ki, nM (SEM, n) hGLP-1R
T2 construct: expressed in transfected cells; crude membranes
T2 sequence (P43220 24-463): as the sequence (P43220 24-463) above

[2] = biological target: T3, human GIP receptor (hGIPR) (Homo sapiens, UniProt P48546); assay: [125I]-GIP binding, SPA with membranes of CHO cells expressing hGIPR; settings: human GIPR; geometric mean (SEM, n); read-out: Binding Affinity Ki, nM (SEM, n) hGIPR
T3 construct: expressed in transfected cells; crude membranes
T3 sequence (P48546 22-466): T1 sequence (P48546 22-466)

hGCGR = biological target: T4, hGCGR (Homo sapiens, UniProt P47871); assay: Functional cAMP formation (HTRF) in HEK-293 clonal cells expressing hGCGR, 0.1% bovine casein, without or with 1.0% human serum albumin; format: cell-based; settings: geometric mean, read-out: hGCGR EC50, nM (SEM, n)
T4 construct: expressed in transfected cells
T4 sequence (P47871 26-477): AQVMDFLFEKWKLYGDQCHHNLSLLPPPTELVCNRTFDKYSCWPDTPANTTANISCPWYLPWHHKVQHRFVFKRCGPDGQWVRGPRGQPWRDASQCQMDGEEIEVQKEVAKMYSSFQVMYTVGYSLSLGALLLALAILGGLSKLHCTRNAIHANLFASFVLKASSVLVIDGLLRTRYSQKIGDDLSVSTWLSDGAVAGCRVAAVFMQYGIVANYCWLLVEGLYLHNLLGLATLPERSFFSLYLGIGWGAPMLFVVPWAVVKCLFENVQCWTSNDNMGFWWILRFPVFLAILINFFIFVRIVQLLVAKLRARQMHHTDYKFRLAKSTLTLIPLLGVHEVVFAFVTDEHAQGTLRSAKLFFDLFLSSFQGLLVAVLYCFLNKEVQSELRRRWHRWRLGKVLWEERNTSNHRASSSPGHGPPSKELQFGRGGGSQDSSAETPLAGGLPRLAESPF
Summary of the method: as §1

[3] = 0.1% bovine casein and 1.0% human serum albumin, 37° C.
[4] = cAMP, incubated at 37° C., 0.1% bovine casein (no human serum albumin)

Q: CCCCCCCCCCCCCCCC(=O)N[C@@H](CCC(=O)NCCOCCOCC(=O)NCCOCCOCC(=O)NCCCC[C@H](NC(=O)[C@H](CCCN)NC(=O)[C@H](CC(=O)O)NC(=O)[C@H](CC(C)C)NC(=O)[C@](C)(CC(C)C)NC(=O)[C@@H](NC(=O)[C@H](CO)NC(=O)[C@H](Cc1ccncc1)NC(=O)[C@H](CC(=O)O)NC(=O)[C@H](CO)NC(=O)[C@@H](NC(=O)[C@](C)(Cc1ccccc1F)NC(=O)[C@@H](NC(=O)CNC(=O)[C@H](CCC(=O)O)NC(=O)C(C)(C)NC(=O)[C@@H](N)Cc1ccc(O)cc1)[C@@H](C)O)[C@@H](C)O)[C@@H](C)CC)C(=O)N[C@@H](C)C(=O)N[C@@H](CCC(N)=O)C(=O)NC(C)(C)C(=O)N[C@@H](CCC(=O)O)C(=O)N[C@@H](Cc1ccccc1)C(=O)N[C@H](C(=O)N[C@H](CCC(=O)O)C(=O)N[C@@](C)(Cc1ccc(O)cc1)C(=O)N[C@@H](CC(C)C)C(=O)N[C@H](C(=O)N[C@@H](CCCCNC(=O)COCCOCCNC(=O)COCCOCCNC(=O)CC[C@H](NC(=O)CCCCCCCCCCCCCCC)C(=O)O)C(=O)NCC(=O)NCC(=O)N1CCC[C@H]1C(=O)N[C@@H](CO)C(=O)N[C@@H](CO)C(=O)NCC(=O)N[C@@H](C)C(=O)N1CCC[C@H]1C(=O)N1CCC[C@H]1C(=O)N1CCC[C@H]1C(=O)N[C@@H](CO)C(N)=O)[C@@H](C)CC)[C@@H](C)CC)C(=O)O [Example 23] was tested. Which EC50 (hGLP-1R; [3]) did it give?
A: 1.98 nM

Q: What about the EC50 (hGIPR; 0.1% bovine casein and 1.0% human serum albumin, geometric mean, read-out: hGIPR EC50, nM (SEM, n)) of the same compound?
A: 0.623 nM

Q: And the Emax (hGIPR)?
A: 95.3 ± 0.863%

Q: And the Ki [1]?
A: 0.251 nM

Q: What about the Ki [2] of the same compound?
A: 0.0238 nM

Q: And the EC50 (hGCGR; [3])?
A: > 9950 nM

Q: And the EC50 (hGCGR; [4])?
A: > 9950 nM

Q: Which EC50 (hGLP-1R; [3]) does the source give for CCCCCCCCCCCCCCCC(=O)N[C@@H](CCC(=O)NCCOCCOCC(=O)NCCOCCOCC(=O)NCCCC[C@H](NC(=O)[C@H](CCCN)NC(=O)[C@H](CC(=O)O)NC(=O)[C@H](CC(C)C)NC(=O)[C@](C)(CC(C)C)NC(=O)[C@@H](NC(=O)[C@H](CO)NC(=O)[C@H](Cc1ccncc1)NC(=O)[C@H](CC(=O)O)NC(=O)[C@H](CO)NC(=O)[C@@H](NC(=O)[C@](C)(Cc1ccccc1F)NC(=O)[C@@H](NC(=O)CNC(=O)[C@H](CCC(=O)O)NC(=O)C(C)(C)NC(=O)[C@@H](N)Cc1ccc(O)cc1)[C@@H](C)O)[C@@H](C)O)[C@@H](C)CC)C(=O)N[C@@H](C)C(=O)N[C@@H](CCC(N)=O)C(=O)NC(C)(C)C(=O)N[C@@H](CCC(=O)O)C(=O)N[C@@H](Cc1ccccc1)C(=O)N[C@H](C(=O)N[C@H](CCC(=O)O)C(=O)N[C@@](C)(Cc1ccc(O)cc1)C(=O)N[C@@H](CC(C)C)C(=O)N[C@H](C(=O)N[C@@H](CCC(=O)O)C(=O)NCC(=O)N[C@@H](CCCCNC(=O)COCCOCCNC(=O)COCCOCCNC(=O)CC[C@H](NC(=O)CCCCCCCCCCCCCCC)C(=O)O)C(=O)N1CCC[C@H]1C(=O)N[C@@H](CO)C(=O)N[C@@H](CO)C(=O)NCC(=O)N[C@@H](C)C(=O)N1CCC[C@H]1C(=O)N1CCC[C@H]1C(=O)N1CCC[C@H]1C(=O)N[C@@H](CO)C(N)=O)[C@@H](C)CC)[C@@H](C)CC)C(=O)O [Example 24] here?
A: 2.04 nM

Q: What about the EC50 (hGLP-1R; [4]) of the same compound?
A: 0.0063 nM

Q: And the Emax (hGIPR)?
A: 92.4 ± 5.97%

Q: What about the Ki [1] of the same compound?
A: 0.52 nM

Q: What about the Ki [2] of the same compound?
A: 0.0361 nM

Q: And the EC50 (hGCGR; [3])?
A: > 9950 nM

Q: What about the EC50 (hGCGR; [4]) of the same compound?
A: > 9950 nM
